From patent publication US20240409510A1 (priority 2022, published 2024)

Each compound was assayed against SARS-CoV-2 3CLpro (Severe acute respiratory syndrome coronavirus 2, UniProt P0DTD1). Conditions: pH 7.5.
Format: biochemical

SMILES | Activity of SARS-CoV-2 MPro inhibitors
CC(C)(C)OC(=O)NC(C(=O)N1C[C@H]2[C@@H](C1C(=O)N[C@@H](C[C@@H]1CCNC1=O)C(=O)C(=O)c1ccc(F)cc1)C2(C)C)C(C)(C)C (stereo partly shown) [Compound 6] | A+++ (key: A >100 μM; A+ <50 μM; A++ <10 μM; A+++ <1 μM)
CC(C)(C)C(NC(=O)C(F)(F)F)C(=O)N1C[C@H]2[C@@H](C1C(=O)N[C@@H](C[C@@H]1CCNC1=O)C(=O)C(=O)c1ccncc1)C2(C)C (stereo partly shown) [Compound 20] | A++ (key: A >100 μM; A+ <50 μM; A++ <10 μM; A+++ <1 μM)
CC(C)(C)[C@H](NC(=O)CCc1ccccc1)C(=O)N1Cc2ccccc2C[C@H]1C(=O)N[C@@H](C[C@@H]1CCNC1=O)C(=O)C(=O)c1ccccc1 [Compound 17] | A+++ (key: A >100 μM; A+ <50 μM; A++ <10 μM; A+++ <1 μM)
CC(C)(C)[C@H](NC(=O)C(F)(F)F)C(=O)N1Cc2ccccc2C[C@H]1C(=O)NC(CC1CCCNC1=O)C(=O)C(=O)c1ccccc1 (stereo partly shown) [Compound 13] | A+ (key: A >100 μM; A+ <50 μM; A++ <10 μM; A+++ <1 μM)
COc1ccccc1C(=O)C(=O)[C@H](C[C@@H]1CCNC1=O)NC(=O)C1[C@@H]2[C@H](CN1C(=O)C(NC(=O)C(F)(F)F)C(C)(C)C)C2(C)C (stereo partly shown) [Compound 15] | A+++ (key: A >100 μM; A+ <50 μM; A++ <10 μM; A+++ <1 μM)
COc1ccc(C(=O)C(=O)[C@H](C[C@@H]2CCNC2=O)NC(=O)C2[C@@H]3[C@H](CN2C(=O)C(NC(=O)C(F)(F)F)C(C)(C)C)C3(C)C)cc1 (stereo partly shown) [Compound 8] | A+++ (key: A >100 μM; A+ <50 μM; A++ <10 μM; A+++ <1 μM)
CC(C)(C)[C@H](NC(=O)C(F)(F)F)C(=O)N1Cc2ccccc2C[C@H]1C(=O)N[C@@H](C[C@@H]1CCNC1=O)C(=O)C(=O)c1ccccc1 [Compound 12] | A+++ (key: A >100 μM; A+ <50 μM; A++ <10 μM; A+++ <1 μM)
Cc1cc(C)cc(C(=O)C(=O)[C@H](C[C@@H]2CCNC2=O)NC(=O)C2[C@@H]3[C@H](CN2C(=O)C(NC(=O)C(F)(F)F)C(C)(C)C)C3(C)C)c1 (stereo partly shown) [Compound 10] | A+++ (key: A >100 μM; A+ <50 μM; A++ <10 μM; A+++ <1 μM)
CCCC(=O)C(=O)[C@H](C[C@@H]1CCNC1=O)NC(=O)[C@@H]1Cc2ccccc2CN1C(=O)[C@@H](NC(=O)C(F)(F)F)C(C)(C)C [Compound 14] | A++ (key: A >100 μM; A+ <50 μM; A++ <10 μM; A+++ <1 μM)
CC(C)(C)C(NC(=O)C(F)(F)F)C(=O)N1C[C@H]2[C@@H](C1C(=O)N[C@@H](C[C@@H]1CCNC1=O)C(=O)C(=O)c1ccc(F)cc1)C2(C)C (stereo partly shown) [Compound 7] | A+++ (key: A >100 μM; A+ <50 μM; A++ <10 μM; A+++ <1 μM)
CC(C)O[C@@H]1C[C@@H](C(=O)NC(C[C@@H]2CCNC2=O)C(=O)C(=O)c2ccccc2)N(C(=O)[C@@H](NC(=O)C(F)(F)F)C(C)(C)C)C1 (stereo partly shown) [Compound 2] | A+++ (key: A >100 μM; A+ <50 μM; A++ <10 μM; A+++ <1 μM)
CCCC(=O)C(=O)[C@H](C[C@@H]1CCNC1=O)NC(=O)C1[C@@H]2[C@H](CN1C(=O)C(NC(=O)C(F)(F)F)C(C)(C)C)C2(C)C (stereo partly shown) [Compound 11] | A+++ (key: A >100 μM; A+ <50 μM; A++ <10 μM; A+++ <1 μM)
CC(C)(C)[C@H](NC(=O)C(Cl)(Cl)Cl)C(=O)N1C[C@H]2[C@@H]([C@H]1C(=O)NC(C[C@@H]1CCNC1=O)C(=O)C(=O)c1ccccc1)C2(C)C (stereo partly shown) [Compound 4] | A++ (key: A >100 μM; A+ <50 μM; A++ <10 μM; A+++ <1 μM)
CCCC(=O)C(=O)[C@H](C[C@@H]1CCNC1=O)NC(=O)[C@@H]1Cc2ccccc2CN1C(=O)[C@@H](NC(=O)OCc1ccncc1)C(C)(C)C [Compound 16] | A+++ (key: A >100 μM; A+ <50 μM; A++ <10 μM; A+++ <1 μM)
CC(C)(C)[C@H](NC(=O)/C=C/c1ccccc1)C(=O)N1Cc2ccccc2C[C@H]1C(=O)N[C@@H](C[C@@H]1CCNC1=O)C(=O)C(=O)c1ccccc1 [Compound 18] | A+++ (key: A >100 μM; A+ <50 μM; A++ <10 μM; A+++ <1 μM)
Cc1ccc(C(=O)C(=O)[C@H](C[C@@H]2CCNC2=O)NC(=O)C2[C@@H]3[C@H](CN2C(=O)C(NC(=O)C(F)(F)F)C(C)(C)C)C3(C)C)cc1 (stereo partly shown) [Compound 5] | A+++ (key: A >100 μM; A+ <50 μM; A++ <10 μM; A+++ <1 μM)
CC(C)(C)C(NC(=O)C(Cl)(Cl)Cl)C(=O)N1C[C@H]2[C@@H](C1C(=O)N[C@@H](C[C@@H]1CCNC1=O)C(=O)C(=O)c1ccccc1)C2(C)C (stereo partly shown) [Compound 9] | A (key: A >100 μM; A+ <50 μM; A++ <10 μM; A+++ <1 μM)
CCCN(CCC)[C@@H]1C[C@@H](C(=O)NC(C[C@@H]2CCNC2=O)C(=O)C(=O)c2ccccc2)N(C(=O)[C@@H](NC(=O)C(F)(F)F)C(C)(C)C)C1 (stereo partly shown) [Compound 1] | A+++ (key: A >100 μM; A+ <50 μM; A++ <10 μM; A+++ <1 μM)
CC(C)(C)C(NC(=O)C(F)(F)F)C(=O)N1C[C@H]2[C@@H](C1C(=O)N[C@@H](C[C@@H]1CCNC1=O)C(=O)C(=O)c1ccccc1)C2(C)C (stereo partly shown) [Compound 3] | A+++ (key: A >100 μM; A+ <50 μM; A++ <10 μM; A+++ <1 μM)
